From PubChem BioAssay AID1988 (Broad Institute, 2009)
Inconclusive results are not listed.

System: H4 cells, SNCA 5'UTR luciferase reporter translation
Assay: inhibitors of SNCA 5'UTR-driven reporter translation, confirmation, luminescence (AID 1988)

SMILES	EC50
C=C(C=O)CC1CC(O)[C@]2(C)OC3CC4OC5C[C@]6(C)O[C@]7(C)CCC8OC9C[C@]%10(C)OC%11C(C)=CC(=O)OC%11CC%10OC9C[C@@H](C)C8OC7CC6O[C@]5(C)CC5OC5C4OC3CC2O1 (stereo partly drawn)	7.35 µM
COc1ccc(O)c2c(=O)c3c(OC)cc4c(c3oc12)C1C=COC1O4 (stereo not drawn)	< 0.1 µM
C#CCOCCOCCOCCNc1nc(N2CCN(C(=O)CCCCCCCCCCNC(=O)[C@H](CO)n3cc(CCCSC)nn3)CC2)nc(N2CCN(C(=O)CCCCCCCCCCNC(=O)[C@H](CCCCN)n3cc(C[C@@H](C)CC)nn3)CC2)n1	7.11 µM
